Like-named read-outs stand apart in the source and are kept apart here.
Experiments:
MT4 = MT4 cytotoxicity (CC50); details: read-out: MT4 CC50; Table 2a
[1] = tested on: Recombinant Respiratory Syncytial virus strain A2 containing the firefly luciferase reporter (RSV-Fluc); assay: microbe, parasite or virus in culture; format: cell-based
SARS-CoV-2 = assay: microbe, parasite or virus in culture; format: cell-based
MT4 cytotoxicity (CC50) = details: human, MT4 cells
[2] = A549 cytotoxicity analysis (CellTiter-Glo); format: cell-based; details: human, A549 cells
Description: The cytotoxicity of compounds was determined in A549 cells in the following manner. Compounds (40 nL) were spotted onto 384-well Grenier plates prior to seeding 5000 A549 cells/well in a volume of 40 μL culture medium. The plates were incubated at 37° C. for 48 hours with 5% CO2. On day 2, 40 μL of CellTiter-Glo (Promega) was added and mixed 5 times. Plates were read for luminescence on an Envision (PerkinElmer) and the CC50 (compound concentration for reducing 50% of luminescence signal as a measure of cell viability) were calculated using a nonlinear regression model (four parameters). Two experiments were performed with technical duplicates.

[3] = human respiratory syncytial virus, NHBE, 72 h, read-out: RSV-Fluc EC50 (NHBE), NHBE cells, three days, Table 1
[4] = Severe acute respiratory syndrome coronavirus 2, 48 h, read-out: SARS-CoV-2 EC50
[5] = human respiratory syncytial virus, NHBE, 72 h, read-out: RSV-Fluc EC50 (NHBE), NHBE cells, three days, Table 2
[6] = human respiratory syncytial virus, NHBE, read-out: RSV EC50, Table 2a
[7] = Severe acute respiratory syndrome coronavirus 2, read-out: SARS EC50
[8] = Severe acute respiratory syndrome coronavirus 2, Table 3, read-out: SARS-CoV-2 EC50

Q: What does the source list for `CCCCCCCCCCCCCCCCCCOC[C@H](COP(=O)(O)OC[C@H]1O[C@@](C#N)(c2ccc3c(N)ncnn23)[C@H](O)[C@@H]1O)OC(C)c1ccccc1` (single isomer, unassigned) [Example 28]?
A: CC50 (MT4): 1060 nM; EC50 ([1]; read-out: RSV EC50, Table 2a): 75 nM; EC50 ([1]; read-out: RSV-Fluc EC50 (NHBE), NHBE cells, three days, Table 2): 70 nM; EC50 (SARS-CoV-2; read-out: SARS EC50): 2300 nM

Q: With `CCCCCCCCCCCCCCCCCCCCOC[C@H](COP(=O)(O)OC[C@H]1O[C@@](C#N)(c2ccc3c(N)ncnn23)[C@H](O)[C@@H]1O)OCc1ccccc1` [Example 8, ((2R,3S,4R,5R)-5-(4-aminopyrrolo[2,1-f][1,2,4]triazin-7-yl)-5-cyano-3,4-dihydroxytetrahydrofuran-2-yl)methyl ((R)-2-(benzyloxy)-3-(icosyloxy)propyl) hydrogen phosphate] as the compound, how does the CC50 (MT4 cytotoxicity (CC50); MT4 CC50, Table 1a) read?
A: 33400 nM

Q: What about the EC50 [1, 3] of the same compound?
A: 110 nM

Q: And the EC50 (SARS-CoV-2; [4])?
A: 800 nM

Q: And the CC50 at 48 h ([2]; 48 hours, Table 1)?
A: 23000 nM

Q: With `CCCCCCCCCCCCCCCCCCOC[C@H](COP(=O)(O)OC[C@H]1O[C@@](C#N)(c2ccc3c(N)ncnn23)[C@H](O)[C@@H]1O)Oc1ccc(C#N)c(OC(C)C)c1` [Example 72, ((2R,3S,4R,5R)-5-(4-aminopyrrolo[2,1-f][1,2,4]triazin-7-yl)-5-cyano-3,4-dihydroxytetrahydrofuran-2-yl)methyl ((R)-2-(4-cyano-3-isopropoxyphenoxy)-3-(octadecyloxy)propyl) hydrogen phosphate] as the compound, how does the CC50 (MT4 cytotoxicity (CC50); MT4 CC50, Table 2a) read?
A: 279 nM

Q: And the EC50 [1, 5]?
A: 8 nM

Q: And the EC50 [1, 6]?
A: 17 nM

Q: What about the EC50 (SARS-CoV-2; [7]) of the same compound?
A: 8350 nM

Q: And the CC50 at 48 h ([2]; Table 3)?
A: 240 nM

Q: With `CCCCCCCCCCCCCCCCCCOC[C@H](COP(=O)(O)OC[C@H]1O[C@@](C#N)(c2ccc3c(N)ncnn23)[C@H](O)[C@@H]1O)OCc1ccc(C(F)(F)F)cc1` [Example 11, ((2R,3S,4R,5R)-5-(4-aminopyrrolo[2,1-f][1,2,4]triazin-7-yl)-5-cyano-3,4-dihydroxytetrahydrofuran-2-yl)methyl ((R)-3-(octadecyloxy)-2-((4-(trifluoromethyl)benzyl)oxy)propyl) hydrogen phosphate] as the compound, how does the CC50 (MT4 cytotoxicity (CC50); MT4 CC50, Table 1a) read?
A: 14500 nM

Q: What about the EC50 [1, 3] of the same compound?
A: 60 nM

Q: And the EC50 (SARS-CoV-2; [4])?
A: 350 nM

Q: And the CC50 at 48 h ([2]; 48 hours, Table 1)?
A: > 50000 nM

Q: With `CCCCCCCCCCCCCCCCCCOC[C@H](COP(=O)(O)OC[C@H]1O[C@@](C#N)(c2ccc3c(N)ncnn23)[C@H](O)[C@@H]1O)OCc1ccccc1` [Example 1, ((2R,3S,4R,5R)-5-(4-aminopyrrolo[2,1-f][1,2,4]triazin-7-yl)-5-cyano-3,4-dihydroxytetrahydrofuran-2-yl)methyl ((R)-2-(benzyloxy)-3-(octadecyloxy)propyl) hydrogen phosphate] as the compound, how does the CC50 (MT4 cytotoxicity (CC50); MT4 CC50, Table 1a) read?
A: 3960 nM

Q: And the EC50 [1, 3]?
A: 90 nM

Q: What about the EC50 (SARS-CoV-2; [4]) of the same compound?
A: 940 nM

Q: What about the CC50 at 48 h ([2]; 48 hours, Table 1) of the same compound?
A: 20000 nM

Q: Which results are given for `CCCCCCCC/C=C\CCCCCCCCOC[C@H](COP(=O)(O)OC[C@H]1O[C@@](C#N)(c2ccc3c(N)ncnn23)[C@H](O)[C@@H]1O)OCc1cc(F)cc(C#N)c1` [Example 69, ((2R,3S,4R,5R)-5-(4-aminopyrrolo[2,1-f][1,2,4]triazin-7-yl)-5-cyano-3,4-dihydroxytetrahydrofuran-2-yl)methyl ((R)-2-((3-cyano-5-fluorobenzyl)oxy)-3-(((Z)-octadec-9-en-1-yl)oxy)propyl) hydrogen phosphate]?
A: CC50 (MT4 cytotoxicity (CC50); MT4 CC50, Table 2a): 730 nM; EC50 [1, 5]: 24 nM; EC50 [1, 6]: 23 nM; EC50 (SARS-CoV-2; [8]): 150 nM; EC50 (SARS-CoV-2; [7]): 150 nM; CC50 at 48 h ([2]; Table 3): 860 nM

Q: With `CCCCCCCCCCCCCCCCOC[C@H](COP(=O)(O)OC[C@H]1O[C@@](C#N)(c2ccc3c(N)ncnn23)[C@H](O)[C@@H]1O)OCc1ccccc1` [Example 5, ((2R,3S,4R,5R)-5-(4-aminopyrrolo[2,1-f][1,2,4]triazin-7-yl)-5-cyano-3,4-dihydroxytetrahydrofuran-2-yl)methyl ((R)-2-(benzyloxy)-3-(hexadecyloxy)propyl) hydrogen phosphate] as the compound, how does the CC50 (MT4 cytotoxicity (CC50); MT4 CC50, Table 1a) read?
A: 6290 nM

Q: What about the EC50 [1, 3] of the same compound?
A: 50 nM

Q: What about the EC50 (SARS-CoV-2; [4]) of the same compound?
A: 480 nM

Q: And the CC50 at 48 h ([2]; 48 hours, Table 1)?
A: 19000 nM

Q: Which results are given for `CCCCCCCCCCCCCCCCCCOC[C@H](COP(=O)(O)OC[C@H]1O[C@@](C#N)(c2ccc3c(N)ncnn23)[C@H](O)[C@@H]1O)OCc1cc(F)cc(F)c1` [Example 15, [(2R,3S,4R,5R)-5-(4-aminopyrrolo[2,1-f][1,2,4]triazin-7-yl)-5-cyano-3,4-dihydroxy-tetrahydrofuran-2-yl]methyl [(2R)-2-[(3,5-difluorophenyl)methoxy]-3-octadecoxy-propyl] hydrogen phosphate]?
A: CC50 (MT4 cytotoxicity (CC50); MT4 CC50, Table 1a): 3310 nM; EC50 [1, 3]: 80 nM; EC50 (SARS-CoV-2; [4]): 260 nM; CC50 at 48 h ([2]; 48 hours, Table 1): 13000 nM

Q: For `CCCCCCCCCCCCCCCCOC[C@H](COP(=O)(O)OC[C@H]1O[C@@](C#N)(c2ccc3c(N)ncnn23)[C@H](O)[C@@H]1O)OCc1cc(F)cc(C#N)c1` [Example 71, ((2R,3S,4R,5R)-5-(4-aminopyrrolo[2,1-f][1,2,4]triazin-7-yl)-5-cyano-3,4-dihydroxytetrahydrofuran-2-yl)methyl ((R)-2-((3-cyano-5-fluorobenzyl)oxy)-3-(hexadecyloxy)propyl) hydrogen phosphate], which CC50 (MT4 cytotoxicity (CC50); MT4 CC50, Table 2a) is on record?
A: 404 nM

Q: What about the EC50 [1, 5] of the same compound?
A: 30 nM

Q: And the EC50 [1, 6]?
A: 3 nM

Q: And the EC50 (SARS-CoV-2; [8])?
A: 130 nM

Q: And the EC50 (SARS-CoV-2; [7])?
A: 130 nM

Q: What about the CC50 at 48 h ([2]; Table 3) of the same compound?
A: 370 nM

Q: With `CCCCCCCCCCCCCCCCCCOC[C@H](COP(=O)(O)OC[C@H]1O[C@@](C#N)(c2ccc3c(N)ncnn23)[C@H](O)[C@@H]1O)OCc1ccc(OC)cc1` [Example 10, ((2R,3S,4R,5R)-5-(4-aminopyrrolo[2,1-f][1,2,4]triazin-7-yl)-5-cyano-3,4-dihydroxytetrahydrofuran-2-yl)methyl ((R)-2-((4-methoxybenzyl)oxy)-3-(octadecyloxy)propyl) hydrogen phosphate] as the compound, how does the CC50 (MT4 cytotoxicity (CC50); MT4 CC50, Table 1a) read?
A: 3430 nM

Q: What about the EC50 [1, 3] of the same compound?
A: 60 nM

Q: And the EC50 (SARS-CoV-2; [4])?
A: 300 nM

Q: And the CC50 at 48 h ([2]; 48 hours, Table 1)?
A: 20000 nM

Reference: US12030904B2 (priority 2020, dated 2024)
